Laboratory results reported in the supplement of paper PMC10307832.

Columns and labels:
Experiment in all cases: relative viability (nuclei count vs DMSO), 5 days (fraction); higher = more cells survive
EHT 1864 + Alpelisib = compound: C1COCCN1CC2=CC(=O)C(=CO2)OCCCCCSC3=C4C=CC(=CC4=NC=C3)C(F)(F)F [EHT 1864] + Cc1nc(NC(=O)N2CCC[C@H]2C(N)=O)sc1-c1ccnc(C(C)(C)C(F)(F)F)c1 [Alpelisib] (partner 2 µM)
Method in brief: (§1)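 Relative viability equals treated-well nuclei counts divided by vehicle-well nuclei counts. Counts came from 4× images of lung cancer cell lines grown in 1536-well plates for 5 days after pin-tool dosing on the day after seeding. Dosing used one drug alone or a fixed anchor-drug dose plus five library-drug doses (not always all listed) in √10 steps, and values are medians of duplicate plates.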

EHT 1864 + Decitabine = compound: C1COCCN1CC2=CC(=O)C(=CO2)OCCCCCSC3=C4C=CC(=CC4=NC=C3)C(F)(F)F [EHT 1864] + Nc1ncn([C@H]2C[C@H](O)[C@@H](CO)O2)c(=O)n1 [Decitabine] (partner 2 µM)
Method in brief: as §1

EHT 1864 + Linsitinib = compound: C1COCCN1CC2=CC(=O)C(=CO2)OCCCCCSC3=C4C=CC(=CC4=NC=C3)C(F)(F)F [EHT 1864] + C[C@]1(O)C[C@@H](c2nc(-c3ccc4ccc(-c5ccccc5)nc4c3)c3c(N)nccn32)C1 [Linsitinib] (partner 1 µM)
Method in brief: as §1

EHT 1864 + Pictilisib = compound: C1COCCN1CC2=CC(=O)C(=CO2)OCCCCCSC3=C4C=CC(=CC4=NC=C3)C(F)(F)F [EHT 1864] + CS(=O)(=O)N1CCN(Cc2cc3nc(-c4cccc5[nH]ncc45)nc(N4CCOCC4)c3s2)CC1 [Pictilisib] (partner 1 µM)
Method in brief: as §1

Cell Line	relative viability (EHT 1864 + Alpelisib; first compound 0.04 µM)	relative viability (EHT 1864 + Alpelisib; first compound 0.1265 µM)	relative viability (EHT 1864 + Alpelisib; first compound 0.4 µM)	relative viability (EHT 1864 + Alpelisib; first compound 1.265 µM)	relative viability (EHT 1864 + Alpelisib; first compound 4 µM)	relative viability (EHT 1864 + Decitabine; first compound 0.04 µM)	relative viability (EHT 1864 + Decitabine; first compound 0.4 µM)	relative viability (EHT 1864 + Decitabine; first compound 1.265 µM)	relative viability (EHT 1864 + Decitabine; first compound 4 µM)	relative viability (EHT 1864 + Linsitinib; first compound 0.04 µM)	relative viability (EHT 1864 + Linsitinib; first compound 0.1265 µM)	relative viability (EHT 1864 + Linsitinib; first compound 0.4 µM)	relative viability (EHT 1864 + Linsitinib; first compound 1.265 µM)	relative viability (EHT 1864 + Linsitinib; first compound 4 µM)	relative viability (EHT 1864 + Pictilisib; first compound 0.04 µM)	relative viability (EHT 1864 + Pictilisib; first compound 0.1265 µM)	relative viability (EHT 1864 + Pictilisib; first compound 0.4 µM)	relative viability (EHT 1864 + Pictilisib; first compound 1.265 µM)	relative viability (EHT 1864 + Pictilisib; first compound 4 µM)	relative viability (EHT 1864 + Decitabine; first compound 0.1265 µM)
NCI-H1993	0.733	0.658	0.568	0.679	0.732	0.552	0.598	0.645	0.57	0.735	0.757	0.709	0.778	0.695	0.88	1.04	0.788	0.866	0.894	–
NCI-H1437	0.988	1.04	0.899	0.805	0.652	0.607	0.542	0.566	0.518	0.905	0.917	0.974	0.776	0.655	0.438	0.47	0.418	0.492	0.397	0.523
UMC-11	0.887	1.01	0.976	0.962	1.02	0.447	0.731	0.693	0.736	1.02	0.978	0.986	0.962	0.963	0.829	0.591	0.903	0.63	0.883	1.15
201T	1.02	1.08	0.977	0.982	1.01	0.86	0.863	0.8	0.778	1.08	1.05	1.08	0.925	1.03	0.703	0.676	0.7	0.647	0.607	0.874
SK-MES-1	0.934	0.823	0.884	0.92	0.906	0.365	0.377	0.448	0.41	1.06	1.06	1.17	1.16	1.09	0.398	0.361	0.34	0.337	0.315	0.398
LOU-NH91	0.739	0.7	0.793	0.736	0.624	0.793	0.842	0.804	0.754	0.975	0.875	1.06	1.1	0.767	0.537	0.507	0.559	0.527	0.514	0.754
HOP-62	1.03	–	0.838	0.796	0.884	0.225	0.202	0.241	0.246	1.13	–	0.865	0.943	1.03	0.788	–	0.612	0.804	1.09	–
NCI-H1915	1.12	–	0.988	1.05	1.05	0.259	0.265	0.26	0.265	1.13	–	1.04	1.1	1.08	1.02	–	0.963	0.998	0.905	–
NCI-H3122	0.869	0.751	0.774	0.732	0.766	0.373	0.42	0.432	0.339	1.03	0.977	0.932	1.02	0.965	0.564	0.428	0.583	0.617	0.675	0.423
NCI-H1651	0.917	0.876	0.949	0.967	0.878	0.55	0.631	0.652	0.594	1.07	0.885	0.992	0.931	0.996	0.537	0.562	0.555	0.563	0.492	0.695
NCI-H838	0.969	0.881	0.988	0.921	0.827	0.472	0.442	0.445	0.431	0.977	0.889	1.08	1.05	1.01	0.501	0.353	0.548	0.435	0.428	0.438
NCI-H596	0.524	0.529	0.506	0.434	0.514	0.937	1.14	1.09	1.24	1.06	1.11	0.989	0.906	0.964	0.374	0.445	0.388	0.334	0.373	1.05
SK-LU-1	1.02	1.02	0.928	0.996	0.815	0.732	0.567	0.657	0.658	1.09	1	0.95	1.11	1.12	0.619	0.519	0.619	0.542	0.583	0.632
NCI-H441	0.73	0.644	0.532	0.779	0.729	0.246	0.241	0.234	0.241	0.517	0.574	0.503	0.461	0.561	0.388	0.359	0.515	0.6	0.508	–
NCI-H650	1.05	–	1.23	1.02	1.09	0.372	0.356	0.356	0.34	0.94	–	1.01	0.947	0.884	0.915	–	0.941	0.895	0.847	0.312
NCI-H1793	–	0.635	0.815	0.847	0.7	0.47	0.506	0.56	0.614	–	0.775	0.888	0.696	0.984	–	0.465	0.366	0.3	0.311	0.466
NCI-H1792	0.664	0.584	0.627	0.72	0.792	0.506	0.515	0.567	0.601	0.514	0.376	0.556	0.57	0.628	0.259	0.302	0.27	0.288	0.348	–
